The values that follow are results of earlier work, collected in article PMC8679839, “Interleukin‐2‐inducible T‐cell kinase (Itk) signaling regulates potent noncanonical regulatory T cells” (Clinical and Translational Medicine, 2021).

The data set relates to Tregs. The text has this:
Tregs are critical for the maintenance of tolerance, and transfer of Treg cells can ameliorate GVHD by restoring defective tolerance mechanisms.[41] One of the biggest challenges is to isolate functional Tregs in large numbers for immunotherapy.[42] This challenge is due to the low number of Tregs in peripheral blood.[4] Given their low numbers in the blood, it is difficult to obtain enough Tregs in the clinic for use as a therapy. If the number of collected canTregs and ncTregs could be increased for use in GVHD patients, such patients could be better protected from GVHD and other autoimmune ...

The structures appear in SMILES notation.

On to `CO[C@H]1C[C@@H]2CC[C@@H](C)[C@@](O)(O2)C(=O)C(=O)N2CCCC[C@H]2C(=O)O[C@H]([C@H](C)C[C@@H]2CC[C@@H](O)[C@H](OC)C2)CC(=O)[C@H](C)/C=C(\C)[C@@H](O)[C@@H](OC)C(=O)[C@H](C)C[C@H](C)/C=C/C=C/C=C/1C` [rapamycin], for which the “Treg number after in vitro expansion” value was “increases Tregs” and the “Treg suppressive function after in vitro expansion” value was “reduces suppressive function”.
